# Residues, ends and D or L forms follow the SMILES beside them. *: point of attachment. Cbz = O=C(OCc1ccccc1)*; CH2F = FC*
# Key:
# 293T cells = assay: Induction of paraptosis in 293T cells, LDH cell death assay; format: cell-based, human; details: 293T cells
# Description: Human embryonic kidney 293T cell line cells were used to assay for inducers and inhibitors of paraptosis. These cells were cultured in high glucose DMEM (Life Technologies) supplemented with 10% FBS (Sigma) and 1% penicillin/streptomycin (Life Technologies). The cultures were incubated at 37° C. in 95% air 5% carbon dioxide with 95% humidity.
# (§1) Subsequently, compounds were added to 293T cells and/or rat neuronal primary cell culture cells in order to determine if the compounds could induce paraptosis. Cell death was assayed using the lactate dehydrogenase (LDH) assay, in which the relative amount of enzyme released from dying cells in the medium is measured by following the disappearance of nicotinamide adenine dinucleotide, reduced form (NADH) in the following reaction: pyruvate+NADH <−>NAD^++ lactate. Briefly, 50 μl of culture medium for either 293T cells or 100 μl of culture medium for neuronal primary culture were dispensed in a 96 well plate to which 100 μl of a solution consisting of 5 mg of NADH dissolved in 20 ml of PBS and 0.5 ml of 100 mM NaPyruvate. NADH disappearance was assessed by kinetic photmetric readings at a 340 nm wavelength at 19 minute intervals over a period of 2 hours and 30 minutes.
# Constructs of pcDNA3 containing procaspase-7 or procaspase-8 were transiently transfected into 293T cells using Lipofect-Amine (GIBCO-BRL) according to the manufacturer's instructions. Briefly, 1×10^6 293T cells were seeded in 6 cm dishes, and transfected the next day using a ratio of DNA:Lipofect-Amine of 1 μg:5 μl. Transfection efficiency was 60–80% for 293T cells, as determined by X-gal staining after transfection of a β-galactosidase construct.
# [1] = test system: rat neuronal primary cell cultures; assay: Induction of paraptosis in rat neuronal primary cell cultures, LDH cell death assay; format: cell-based
# Description: Rat neuronal primary cell cultures were also used to assay for inducers and inhibitors of paraptosis. Briefly, primary striatal, cortical and hippocampal cultures were prepared from 17-day-old Sprague-Dawley rat embryos (B&K). The tissue was dissected, minced and trypsinized for five minutes using 0.25% trypsin (Cell Grow). After the addition of 10% horse serum (Life Technologies) to inhibit the trypsin, the cell suspension was triturated 15–20 times with a 10 ml syringe and centrifuged for five minutes at 800×g. The pellet was resuspended in MEM-PAK (UCSF Cell Culture facility), supplemented with 2.02 gm glucose, 2 mM GLUTAMAX™ (Life Technologies) and penicillin/streptomycin (100 U/ml). […]
# as §1, with “Briefly, 50 μl of culture medium for either 293T cells or 100 μl of culture medium for neuronal primary culture were dispensed in a 96 well plate to which 100 μl of a solution consisting of 5 mg of NADH dissolved in 20 ml of PBS and 0.5 ml of 100 mM NaPyruvate.” left out
# [2] = test system: IGFIR-IC transfected 293T cells; assay: Inhibition of IGFIR-IC induced paraptosis in transfected 293T cells, LDH assay; format: cell-based, human; details: for effect on IGFIR-induced paraptosis: concentration not given
# Description: Paraptosis was induced in 293T cells by expressing the intracellular domain of the insulin-like growth factor I receptor (IGFIR-IC) in these cells using transient transfection as described above.
# (§2) Test compounds were added to IGFIR-IC transfected 293T cells at the time of transfection.
# The TRAF2 dominant negative mutant contains a deletion of the amino terminal 271 amino acids of the protein. The ratio of IGFIR-IC:AIP1 and IGFIR-IC:TRAF2DN was 1:3. […] Antisense oligonucleotide constructs for JNK1 or JNK2 (50–100 nM) were transfected into 293T cells one day before transfection with the IGFIR-IC construct. For all inhibition assays, cell viability was measured using the LDH assay.
# SP-induced paraptosis = assay: Inhibition of SP-induced paraptosis, cells not specified; format: cell-based; details: concentration not given
# [3] = test system: paraptosis induced by caspase 7, caspase 8 or caspase 9; assay: Inhibition of paraptosis induced by caspases; format: cell-based
# Description: as §2
# [4] = test system: striatal, cortical, and hippocampal neurons; assay: SP-induced cell death in primary striatal, cortical and hippocampal neurons, trypan blue viability and staining; format: cell-based, rat; details: for effect on SP-induced cell death in neurons: caspase inhibitors at 50 μM
# Description: Rat neuronal primary cell cultures were also used to assay for inducers and inhibitors of paraptosis. Briefly, primary striatal, cortical and hippocampal cultures were prepared from 17-day-old Sprague-Dawley rat embryos (B&K). The tissue was dissected, minced and trypsinized for five minutes using 0.25% trypsin (Cell Grow). After the addition of 10% horse serum (Life Technologies) to inhibit the trypsin, the cell suspension was triturated 15–20 times with a 10 ml syringe and centrifuged for five minutes at 800×g. The pellet was resuspended in MEM-PAK (UCSF Cell Culture facility), supplemented with 2.02 gm glucose, 2 mM GLUTAMAX™ (Life Technologies) and penicillin/streptomycin (100 U/ml). The suspension was filtered through a […] cell strainer and the final culture medium contained 5% horse serum. Subsequently, 3-4×10^5 cells per Cm^2 were seeded onto either poly-D-lysine precoated 8-well chamber slides (Becton-Dickson Labware) or 96 well plates precoated with […] of poly-D-lysine (Sigma) in water. After 30 minutes of incubation time, unattached cells were removed together with the medium and replaced with glucose enriched MEM-PAK plus 5% horse serum. The cultures were then incubated at 37° C. in 95% air 5% carbon dioxide with 95% humidity. Cultures were used for experiments between day 1 and day 7 when glial contamination was at a minimum.
# Primary neuronal cells were prepared as described in Example I. SP (SIGMA) at a concentration of 0.1 nM–100 μM was added 24–48 hrs after seeding, in the presence of 2.5% horse serum. When the cultures were maintained for more than 5 days, 10 μM cytosine arabinoside was added for 24 hours, beginning 3 days after plating the cells. Viability was quantified by trypan blue staining of the total cell population.
# The following compounds were added at the same time as SP in the indicated experiments: 5 nM L-732, 138; 1 nM L-733,060; 1 μg/ml Actinomycin D or 1 μg/ml Cycloheximide. All of these compounds were obtained from SIGMA. The caspase inhibitors zVAD.fmk and BAF were added at 50 μM and obtained from Enzyme System Products, Livermore, Calif.
# Either neuronal primary cultures or human embryonic kidney 293T cells were fixed with 4% paraformaldehyde and stained with 0.5 μg/ml DAPI (Molecular Probes) or Hoechst(SIGMA). […]
# (§3) The protein kinase inhibitors were added 30 min before SP exposure at the following concentrations: 10 μM Rp-8-Br-cAMPS (adenosin 3′,5′-cyclic monophosphorothioate, 8-bromo-, Rp-isomer, sodium salt) which is a PKA inhibitor; 50 nM Calphostin C, which is a PKC inhibitor; 10 μM PD 98059 which is a MAPKK (MEK) inhibitor. These compounds were obtained from Calbiochem. Viability was quantified by trypan blue staining of the total cell population.
# [5] = test system: 293T cells transfected with NK1R; assay: SP-induced, NK1R-mediated cell death in 293T cells transfected with NK1R, trypan blue and staining; format: cell-based, human; details: for effect on NK1R-mediated cell death in 293T cells: caspase inhibitors at 50 μM
# Description: (§4) Human embryonic kidney 293T cells were grown as described in Example I. Transient transfection was performed using Superfect (Qiagen) as described by the manufacturer. Briefly, 2×10^5 cells/well were seeded into 35 mm wells 16 hr prior to transfection. Superfect:DNA complexes were added at a 5 μl:2 μg ratio for 3 hr; then the medium was replaced and after 24 hr SP was added. At 24–48 hr after addition of SP cell death was quantified as follows: the media containing floating cells were collected and centrifuged 10 min at 2000×g, the pellet was resuspended in PBS/trypan blue and the cells were counted using a hematocytometer. When other compounds were used, they were added at the same time as SP: zVAD.fmk or BAF was added at 50 μM and obtained from Enzyme System Products, Livermore, Calif.
# Briefly, the method entailed cloning the full-length (1.2 kb) NK1R cDNA (Genbank Accession No. M31477) by RT-PCR from adult rat hippocampal RNA into the XbaI/EcoRI sites of the vector pcDNA3.1 (Invitrogen), using the following oligonucleotides: forward 5′[…] 3′ (SEQ ID NO:2); reverse 5′[…] 3′ (SEQ ID NO:3).
# Cells were stained according to the manufacturer's instructions (Clontech). Briefly, cellswere washed with binding buffer and incubated with FITC-Annexin-V or EGFPAnnexin-V for 5–10 min and fixed with 4% paraformaldehyde.
# Cells were fixed 10 min with 4% paraformaldehyde and stained according to the manufacturer's instructions (Promega).
# as §3
# [6] = test system: caspase-8 transfected cells; assay: Apoptosis induced by over-expression of caspase-8 in 293T cells; format: cell-based, human; details: caspase inhibitors at 50 μM
# Description: as §4
# paraptosis = details: cited from earlier work
# ERK-1/2 = assay: Western blot of ERK-1/2 phosphorylation in 293T cells expressing NK1R; format: cell-based, human; details: 10 μM
# Description: For the transfected 293T cells, cells were washed with cold PBS after incubation with SP the time indicate and homogenized on lysis buffer (150 mM NaCl, 1% Triton X-100, 50 mM Tris HCL pH8.0). Cytoplasmic extracts were collected after 10 min centrifugation at 14,000 rcf. Total amount of protein was quantified by Bradford assay and electrophoresis of equal amounts of total protein was performed on SDS-polyacrylamide gels. Separated proteins were transferred to polyvinylidene fluoride membranes at 4° C. for Western blot analysis. Membranes were probed with a 1:1000 dilution of anti-ERK-1/2 or anti phospho-ERK-1/2 (BioSource). The blots were incubated in a horseradish peroxidase coupled secondary antibody for 1 h followed by enhanced chemiluminescence detection of the proteins with […]™ ECL detection (Amersham, Arlington Heights, Ill.). For striatal neurons, total ERK-1/2 was immunoprecipitated using superparamagnetic Microbeads conjugated to protein A, following manufacture's instructions (MACS, Miltenyi Biotec), and then developed by Western blot against either anti-ERK-1/2 or anti phospho-ERK-1/2.
molecule,measurement,setting,value
"CCCCCCCCCCCCC/C=C/[C@@H](O)[C@H](CO)NC(C)=O [C2 ceramide, N-Acetyl-D-sphingosine]",concentration at which found to induce paraptosis,293T cells,15 to 100 µM
same,concentration at which found to induce paraptosis,[1],15 to 100 µM
"N[C@@H](CCC(=O)O)C(=O)O [Glutamic Acid, (S)-2-aminopentanedioic acid]",concentration at which found to induce paraptosis,[1],50 to 500 µM
N#CC(=C(/N)Sc1ccccc1N)/C(C#N)=C(/N)Sc1ccccc1N [UO126],effect on IGFIR-induced paraptosis,[2],can be inhibited
same,effect on SP-induced paraptosis,SP-induced paraptosis,can be inhibited
"COC(=O)CC(NC(=O)OC(C)(C)C)C(=O)CF (centres unmarked) [BAF, Box-aspartyl.fmk]",inhibition of paraptosis induction by caspase-7 and caspase-8,[3],subject to inhibition
same,effect on SP-induced cell death in neurons,[4],not inhibited
same,effect on NK1R-mediated cell death in 293T cells,[5],lack of effect
same,effect on apoptosis induced by over-expression of caspase-8,[6],completely abolished
same,effect of caspase inhibitors on paraptosis,paraptosis,lack of effect
COC(=O)C[C@H](NC(=O)[C@H](C)NC(=O)[C@@H](NC(=O)OCc1ccccc1)C(C)C)C(=O)CF [zVAD.fmk] (Cbz-Val-Ala-Asp(OMe)-CH2F),inhibition of paraptosis induction by caspase-7 and caspase-8,[3],subject to inhibition
same,effect on SP-induced cell death in neurons,[4],not inhibited
same,effect on NK1R-mediated cell death in 293T cells,[5],lack of effect
same,effect on apoptosis induced by over-expression of caspase-8,[6],completely abolished
same,effect of caspase inhibitors on paraptosis,paraptosis,lack of effect
COc1cccc(-c2cc(=O)c3ccccc3o2)c1N [PD 98059],effect on IGFIR-induced paraptosis,[2],not blocked
same,effect on neuronal cell death in response to SP,"[4]; added 30 min before SP: 10 μM PD 98059, 50 nM Calphostin C, 10 μM Rp-8-Br-cAMPS",completely blocked
same,effect on non-neuronal NK1R-mediated pcd,[5]; 10 μM,inhibited
same,effect on phosphorylation of ERK-1/2,ERK-1/2,effectively reduced
"AIP-1: Alg-2 interacting protein 1, co-transfected with the IGFIR-IC construct (protein, UniProt Q8WUM4 2-868, looked up) Programmed cell death …: ATFISVQLKKTSEVDLAKPLVKFIQQTYPSGGEEQAQYCRAAEELSKLRRAAVGRPLDKHEGALETLLRYYDQICSIEPKFPFSENQICLTFTWKDAFDKGSLFGGSVKLALASLGYEKSCVLFNCAALASQIAAEQNLDNDEGLKIAAKHYQFASGAFLHIKETVLSALSREPTVDISPDTVGTLSLIMLAQAQEVFFLKATRDKMKDAIIAKLANQAADYFGDAFKQCQYKDTLPKEVFPVLAAKHCIMQANAEYHQSILAKQQKKFGEEIARLQHAAELIKTVASRYDEYVNVKDFSDKINRALAAAKKDNDFIYHDRVPDLKDLDPIGKATLVKSTPVNVPISQKFTDLFEKMVPVSVQQSLAAYNQRKADLVNRSIAQMREATTLANGVLASLNLPAAIEDVSGDTVPQSILTKSRSVIEQGGIQTVDQLIKELPELLQRNREILDESLRLLDEEEATDNDLRAKFKERWQRTPSNELYKPLRAEGTNFRTVLDKAVQADGQVKECYQSHRDTIVLLCKPEPELNAAIPSANPAKTMQGSEVVNVLKSLLSNLDEVKKEREGLENDLKSVNFDMTSKFLTALAQDGVINEEALSVTELDRVYGGLTTKVQESLKKQEGLLKNIQVSHQEFSKMKQSNNEANLREEVLKNLATAYDNFVELVANLKEGTKFYNELTEILVRFQNKCSDIVFARKTERDELLKDLQQSIAREPSAPSIPTPAYQSSPAGGHAPTPPTPAPRTMPPTKPQPPARPPPPVLPANRAPSATAPSPVGAGTAAPAPSQTPGSAPPPQAQGPPYPTYPGYPGYCQMPMPMGYNPYAYGQYNMPYPPVYHQSPGQAPYPGPQQPSYPFPQPPQQSYYPQQ",inhibition of IGFIR-IC induced paraptosis,"[2]; co-transfected with the IGFIR-IC construct, ratio 1:3",able to inhibit IGFIR-IC induced paraptosis
same,effect on SP-induced paraptosis,SP-induced paraptosis,can be inhibited
"p35: caspase inhibitor (protein, UniProt P08160 1-299, looked up) Early 35 kDa protein: MCVIFPVEIDVSQTIIRDCQVDKQTRELVYINKIMNTQLTKPVLMMFNISGPIRSVTRKNNNLRDRIKSKVDEQFDQLERDYSDQMDGFHDSIKYFKDEHYSVSCQNGSVLKSKFAKILKSHDYTDKKSIEAYEKYCLPKLVDERNDYYVAVCVLKPGFENGSNQVLSFEYNPIGNKVIVPFAHEINDTGLYEYDVVAYVDSVQFDGEQFEEFVQSLILPSSFKNSEKVLYYNEASKNKSMIYKALEFTTESSWGKSEKYNWKIFCNGFIYDKKSKVLYVKLHNVTSALNKNVILNTIK",inhibition of paraptosis induction by caspase-7 and caspase-8,[3],subject to inhibition
same,effect of caspase inhibitors on paraptosis,paraptosis,lack of effect

# Source: US6994981B2, “Modulators of paraptosis and related methods” (The Buck Institute, priority 2002, dated 2006)
